Reference: ChEMBL document CHEMBL4630907 (2021)
Calls of active or inactive are those of the source. The calls are words filed in the database; no cut-off is given here.

What was measured:
[1] = target: GABA-A receptor; anion channel; test: GPCRScan assay: inhibition of GABAA; assay type: protein-complex assay, Rattus norvegicus; set-up: radioligand conc. used [nm] 9.50 – 25.0, parental cells brain tissue
[2] = target: T1, Bromodomain-containing protein 3 (Homo sapiens, UniProt Q15059); test: TR-FRET assay (BRD3 BD2)
Target sequence in this assay (Q15059 whole entry): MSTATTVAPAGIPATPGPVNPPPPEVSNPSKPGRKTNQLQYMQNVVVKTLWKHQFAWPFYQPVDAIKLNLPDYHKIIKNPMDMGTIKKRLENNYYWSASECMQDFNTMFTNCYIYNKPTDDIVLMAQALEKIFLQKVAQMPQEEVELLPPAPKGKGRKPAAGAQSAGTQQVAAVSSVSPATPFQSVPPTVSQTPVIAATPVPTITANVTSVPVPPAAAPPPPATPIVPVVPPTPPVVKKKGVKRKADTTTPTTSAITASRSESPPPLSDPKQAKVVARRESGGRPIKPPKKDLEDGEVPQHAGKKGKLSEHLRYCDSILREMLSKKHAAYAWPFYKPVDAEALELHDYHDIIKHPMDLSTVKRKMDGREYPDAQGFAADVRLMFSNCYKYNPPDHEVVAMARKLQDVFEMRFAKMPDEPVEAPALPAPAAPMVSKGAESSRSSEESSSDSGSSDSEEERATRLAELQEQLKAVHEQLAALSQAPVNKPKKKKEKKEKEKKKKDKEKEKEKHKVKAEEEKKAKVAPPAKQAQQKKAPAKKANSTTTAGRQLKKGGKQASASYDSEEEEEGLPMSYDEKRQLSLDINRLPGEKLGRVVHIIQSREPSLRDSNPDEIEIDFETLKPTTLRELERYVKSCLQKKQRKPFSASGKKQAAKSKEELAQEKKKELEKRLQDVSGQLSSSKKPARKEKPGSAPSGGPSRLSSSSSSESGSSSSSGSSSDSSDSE

[3] = target: T1, Bromodomain-containing protein 3; test: BET mutant TR-FRET assay (BRD3 BD2)
[4] = target: T2, Bromodomain-containing protein 2 (Homo sapiens, UniProt P25440); test: BRD2 Bromoscan (DiscoverX)
[5] = target: ATPase family AAA domain-containing protein 2 (Homo sapiens, UniProt Q6PL18); test: ATAD2A DiscoverX BROMOscan
[6] = target: ATPase family AAA domain-containing protein 2B (Homo sapiens, UniProt Q9ULI0); test: ATAD2B DiscoverX BROMOscan
[7] = target: Bromodomain-containing protein 1 (Homo sapiens, UniProt O95696); test: BRD1 DiscoverX BROMOscan
[8] = target: T2, Bromodomain-containing protein 2; test: BRD2(2) DiscoverX BROMOscan
[9] = target: Bromodomain-containing protein 9 (Homo sapiens, UniProt Q9H8M2); test: BRD9 DiscoverX BROMOscan
[10] = target: Chromatin remodeling regulator CECR2 (Homo sapiens, UniProt Q9BXF3); test: CECR2 DiscoverX BROMOscan
[11] = target: Nucleosome-remodeling factor subunit BPTF (Homo sapiens, UniProt Q12830); test: FALZ DiscoverX BROMOscan
[12] = target: Histone acetyltransferase KAT2A (Homo sapiens, UniProt Q92830); test: GCN5L2 DiscoverX BROMOscan
[13] = target: T3, Transcription intermediary factor 1-alpha (Homo sapiens, UniProt O15164); test: TRIM24(BROMO.) DiscoverX BROMOscan
[14] = target: T3, Transcription intermediary factor 1-alpha; test: TRIM24(PHD,Bromo.) DiscoverX BROMOscan
[15] = target: Bromodomain and WD repeat-containing protein 1 (Homo sapiens, UniProt Q9NSI6); test: WDR9(2) DiscoverX BROMOscan
[16] = target: 5-hydroxytryptamine receptor 5A (Homo sapiens) (UniProt P47898); settings: Compound concentration 10.0 uM
[17] = target: 5-hydroxytryptamine receptor 6 (Homo sapiens) (UniProt P50406); settings: Compound concentration 10.0 uM
[18] = target: 5-hydroxytryptamine receptor 7 (Homo sapiens) (UniProt P34969); settings: Compound concentration 10.0 uM
[19] = target: Sodium-dependent serotonin transporter (Homo sapiens, UniProt P31645); settings: Compound concentration 10.0 uM
[20] = target: Sodium-dependent noradrenaline transporter (Homo sapiens, UniProt P23975); settings: Compound concentration 10.0 uM
[21] = target: Delta-type opioid receptor (Homo sapiens) (UniProt P41143); settings: Compound concentration 10.0 uM
[22] = target: T4, GABA-A receptor; anion channel (Rattus norvegicus) (UniProt O09028+P15431+P18506+P18508+P19969+P20236+P23574+P23576+P28471+P28473+P30191+P62813+P63079+P63138+Q91ZM7+Q9ES14); settings: Compound concentration 10.0 uM
[23] = target: Histamine H3 receptor (Homo sapiens) (UniProt Q9Y5N1); settings: Compound concentration 10.0 uM
[24] = target: Alpha-1A adrenergic receptor (Homo sapiens) (UniProt P35348); settings: Compound concentration 10.0 uM
[25] = target: Alpha-1B adrenergic receptor (Homo sapiens) (UniProt P35368); settings: Compound concentration 10.0 uM
[26] = target: Muscarinic acetylcholine receptor M2 (Homo sapiens) (UniProt P08172); settings: Compound concentration 10.0 uM
[27] = target: Beta-3 adrenergic receptor (Homo sapiens) (UniProt P13945); settings: Compound concentration 10.0 uM
[28] = target: T4, GABA-A receptor; anion channel (Rattus norvegicus); settings: Compound concentration 10.0 uM; remark: listed apart in the source
[29] = target: Sigma intracellular receptor 2 (Homo sapiens) (UniProt Q5BJF2); settings: Compound concentration 10.0 uM
[30] = target: Sigma non-opioid intracellular receptor 1 (Homo sapiens) (UniProt Q99720); settings: Compound concentration 10.0 uM
Sigma non-opioid intracellular receptor 1 (Homo sapiens), sequence (Q99720 whole entry): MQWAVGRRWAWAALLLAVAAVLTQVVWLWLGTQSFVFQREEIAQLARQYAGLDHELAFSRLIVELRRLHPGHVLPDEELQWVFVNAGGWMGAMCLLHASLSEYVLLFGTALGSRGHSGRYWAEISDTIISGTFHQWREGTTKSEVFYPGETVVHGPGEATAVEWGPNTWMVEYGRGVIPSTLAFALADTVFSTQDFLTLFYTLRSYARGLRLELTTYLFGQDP

T3 sequence (O15164 whole entry): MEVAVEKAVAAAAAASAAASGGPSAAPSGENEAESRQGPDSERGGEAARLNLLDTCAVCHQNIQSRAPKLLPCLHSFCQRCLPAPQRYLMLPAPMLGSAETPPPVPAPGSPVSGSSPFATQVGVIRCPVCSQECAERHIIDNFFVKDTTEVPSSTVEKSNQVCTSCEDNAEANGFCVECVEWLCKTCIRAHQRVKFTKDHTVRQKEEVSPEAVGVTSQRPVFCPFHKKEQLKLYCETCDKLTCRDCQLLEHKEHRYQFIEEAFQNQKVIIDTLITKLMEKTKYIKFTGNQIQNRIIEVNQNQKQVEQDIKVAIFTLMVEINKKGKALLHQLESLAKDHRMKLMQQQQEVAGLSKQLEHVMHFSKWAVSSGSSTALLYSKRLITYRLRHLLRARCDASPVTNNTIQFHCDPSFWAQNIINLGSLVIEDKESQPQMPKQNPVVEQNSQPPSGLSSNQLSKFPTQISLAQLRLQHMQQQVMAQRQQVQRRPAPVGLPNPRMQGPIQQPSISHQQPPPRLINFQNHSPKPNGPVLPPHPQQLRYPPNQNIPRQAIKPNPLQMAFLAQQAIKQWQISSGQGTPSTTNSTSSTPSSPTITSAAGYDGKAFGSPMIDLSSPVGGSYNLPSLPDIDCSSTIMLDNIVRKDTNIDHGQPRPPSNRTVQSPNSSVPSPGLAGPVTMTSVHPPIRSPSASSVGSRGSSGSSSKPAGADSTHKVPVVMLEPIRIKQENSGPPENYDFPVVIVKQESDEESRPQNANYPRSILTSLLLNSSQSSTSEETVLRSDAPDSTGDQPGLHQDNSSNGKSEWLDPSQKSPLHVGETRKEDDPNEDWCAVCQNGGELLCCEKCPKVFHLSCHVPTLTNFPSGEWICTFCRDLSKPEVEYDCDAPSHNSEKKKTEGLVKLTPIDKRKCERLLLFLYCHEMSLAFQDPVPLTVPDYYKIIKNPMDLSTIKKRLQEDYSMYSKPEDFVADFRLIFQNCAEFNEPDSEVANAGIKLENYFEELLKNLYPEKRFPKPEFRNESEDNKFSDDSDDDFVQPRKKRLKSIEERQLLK
T2 sequence (P25440 whole entry, the tested form may be a part): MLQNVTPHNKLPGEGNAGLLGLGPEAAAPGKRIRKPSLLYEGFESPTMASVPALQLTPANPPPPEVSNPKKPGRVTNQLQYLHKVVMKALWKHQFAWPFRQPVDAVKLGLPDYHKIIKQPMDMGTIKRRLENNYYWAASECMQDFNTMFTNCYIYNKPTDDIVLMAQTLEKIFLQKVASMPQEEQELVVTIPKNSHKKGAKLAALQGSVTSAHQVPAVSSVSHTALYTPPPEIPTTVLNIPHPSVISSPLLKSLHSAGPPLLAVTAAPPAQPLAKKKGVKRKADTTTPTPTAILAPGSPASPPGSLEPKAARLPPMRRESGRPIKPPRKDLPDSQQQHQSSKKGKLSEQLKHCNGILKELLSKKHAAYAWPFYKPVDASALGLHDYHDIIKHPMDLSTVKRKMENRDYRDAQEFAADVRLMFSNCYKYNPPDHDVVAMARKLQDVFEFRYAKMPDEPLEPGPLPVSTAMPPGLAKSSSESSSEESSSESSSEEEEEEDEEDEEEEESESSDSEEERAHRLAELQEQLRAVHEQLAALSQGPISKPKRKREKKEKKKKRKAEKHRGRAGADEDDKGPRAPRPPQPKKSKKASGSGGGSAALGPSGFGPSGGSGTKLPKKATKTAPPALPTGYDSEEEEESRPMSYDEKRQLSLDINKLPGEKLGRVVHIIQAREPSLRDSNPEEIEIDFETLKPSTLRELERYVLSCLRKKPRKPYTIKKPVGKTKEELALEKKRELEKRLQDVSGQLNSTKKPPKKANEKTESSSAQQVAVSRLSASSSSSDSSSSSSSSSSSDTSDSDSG
Muscarinic acetylcholine receptor M2 (Homo sapiens), sequence (P08172 whole entry): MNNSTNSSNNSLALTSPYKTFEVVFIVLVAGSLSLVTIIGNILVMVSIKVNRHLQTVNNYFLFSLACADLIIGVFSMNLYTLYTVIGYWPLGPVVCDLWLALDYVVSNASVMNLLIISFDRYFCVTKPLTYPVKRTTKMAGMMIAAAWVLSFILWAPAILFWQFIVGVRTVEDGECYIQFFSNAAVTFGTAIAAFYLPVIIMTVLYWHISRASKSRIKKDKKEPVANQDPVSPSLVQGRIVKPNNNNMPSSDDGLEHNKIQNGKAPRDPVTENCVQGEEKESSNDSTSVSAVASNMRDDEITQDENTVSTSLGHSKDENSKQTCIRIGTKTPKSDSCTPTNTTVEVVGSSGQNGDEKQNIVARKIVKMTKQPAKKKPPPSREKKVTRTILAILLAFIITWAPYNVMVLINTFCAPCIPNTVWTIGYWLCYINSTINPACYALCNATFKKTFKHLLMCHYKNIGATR
Sigma intracellular receptor 2 (Homo sapiens), sequence (Q5BJF2 whole entry): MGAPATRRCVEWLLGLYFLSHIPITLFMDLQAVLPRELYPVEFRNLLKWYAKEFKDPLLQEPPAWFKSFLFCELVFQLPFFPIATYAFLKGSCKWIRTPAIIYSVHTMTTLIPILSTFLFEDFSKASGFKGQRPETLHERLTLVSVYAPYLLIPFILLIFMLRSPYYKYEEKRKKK
Histone acetyltransferase KAT2A, sequence (Q92830 whole entry): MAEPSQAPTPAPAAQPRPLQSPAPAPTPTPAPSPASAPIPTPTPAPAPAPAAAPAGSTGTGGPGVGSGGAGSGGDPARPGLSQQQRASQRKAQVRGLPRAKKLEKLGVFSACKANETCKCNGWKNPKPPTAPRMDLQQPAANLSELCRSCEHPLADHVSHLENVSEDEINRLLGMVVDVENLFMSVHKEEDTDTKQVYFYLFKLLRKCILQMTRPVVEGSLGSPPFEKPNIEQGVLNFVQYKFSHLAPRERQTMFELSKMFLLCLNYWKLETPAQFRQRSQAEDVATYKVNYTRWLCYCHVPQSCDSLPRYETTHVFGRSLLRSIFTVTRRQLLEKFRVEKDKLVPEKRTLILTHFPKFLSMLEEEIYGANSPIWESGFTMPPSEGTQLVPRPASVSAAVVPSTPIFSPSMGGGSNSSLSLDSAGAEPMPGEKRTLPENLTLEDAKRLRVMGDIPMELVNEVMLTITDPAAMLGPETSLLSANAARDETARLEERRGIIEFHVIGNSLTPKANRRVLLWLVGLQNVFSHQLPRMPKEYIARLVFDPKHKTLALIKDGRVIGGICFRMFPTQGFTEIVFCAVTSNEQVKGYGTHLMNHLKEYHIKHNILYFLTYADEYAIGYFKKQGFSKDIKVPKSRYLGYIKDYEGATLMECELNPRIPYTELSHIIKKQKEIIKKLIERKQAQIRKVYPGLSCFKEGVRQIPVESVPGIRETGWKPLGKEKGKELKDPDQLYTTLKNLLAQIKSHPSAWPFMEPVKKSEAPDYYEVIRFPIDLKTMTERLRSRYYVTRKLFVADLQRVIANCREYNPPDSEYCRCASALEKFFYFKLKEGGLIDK
Delta-type opioid receptor (Homo sapiens), sequence (P41143 whole entry): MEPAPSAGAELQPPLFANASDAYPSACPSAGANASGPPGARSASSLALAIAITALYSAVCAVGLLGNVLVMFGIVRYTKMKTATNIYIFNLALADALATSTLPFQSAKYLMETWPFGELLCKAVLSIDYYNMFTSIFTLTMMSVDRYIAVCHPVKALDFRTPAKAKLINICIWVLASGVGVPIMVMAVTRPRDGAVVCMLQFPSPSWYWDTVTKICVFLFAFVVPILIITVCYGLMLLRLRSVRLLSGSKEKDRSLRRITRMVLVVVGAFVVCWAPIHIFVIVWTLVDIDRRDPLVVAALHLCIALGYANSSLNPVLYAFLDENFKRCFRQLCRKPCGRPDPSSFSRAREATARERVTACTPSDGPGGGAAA
5-hydroxytryptamine receptor 5A (Homo sapiens), sequence (P47898 whole entry): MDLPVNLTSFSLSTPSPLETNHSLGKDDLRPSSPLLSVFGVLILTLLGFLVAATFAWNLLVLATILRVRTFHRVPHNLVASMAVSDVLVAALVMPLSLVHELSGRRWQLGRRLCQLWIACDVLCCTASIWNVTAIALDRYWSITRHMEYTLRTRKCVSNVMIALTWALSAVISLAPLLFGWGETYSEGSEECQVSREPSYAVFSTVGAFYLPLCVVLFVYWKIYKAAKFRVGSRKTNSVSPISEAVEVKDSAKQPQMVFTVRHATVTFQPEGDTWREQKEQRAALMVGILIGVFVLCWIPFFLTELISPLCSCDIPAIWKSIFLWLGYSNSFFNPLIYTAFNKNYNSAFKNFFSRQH

For `COCc1nc2cnc3cc(-c4c(C)noc4C)c(OC[C@H]4CCNC4)cc3c2n1[C@H](C)c1ccccc1` [GSK778], the Ki [1] was 1.6 µM, the pKi [1] was 5.81 and the IC50 [2] was 1.21 µM (not active). The pIC50 [3] was 6, the Kd [4] was 0.013 µM (active) and the Kd [5] was 30 µM. It also gave a Kd [6] of 25 µM, a Kd [7] of 30 µM and a Kd [8] of 0.84 µM. The Kd [9] was 30 µM, the Kd [10] was 30 µM and the Kd [11] was 30 µM. For the same molecule, the Kd [12] was 30 µM, the Kd [13] was 30 µM and the Kd [14] was 30 µM. It also gave a Kd [15] of 30 µM, an inhibition [16] of 21.5% and an inhibition [17] of -9.08%. It also gave an inhibition [18] of -5.39%, an inhibition [19] of 10.7% and an inhibition [20] of 34.5%. For the same molecule, the inhibition [21] was 38.5%, the inhibition [22] was 52.7% and the inhibition [23] was -5.03%. It also gave an inhibition [24] of 0.31%, an inhibition [25] of 4.2% and an inhibition [26] of 4.05%. It also gave an inhibition [27] of 10.5%, an inhibition [28] of 91.6% and an inhibition [29] of 23%. The inhibition [30] was 38.5%.
